Assay results from patent publication US4000297A, “N-p-chlorobenzoyl tryptophane, salts and compositions thereof” (priority 1971, dated 1976).
Counter-ions that a name gives are not always drawn. Like-named read-outs stand apart in the source and are kept apart here.

Key:
[1] = tested on: transit through the stomach and intestine; assay: Anti-spastic activity, vegetable carbon (charcoal) test, rate of transit through the stomach and intestine; assay type: in vivo, mice; conditions: for ED50: Mus musculus, 2 h; for Ratio 3/2: anti-secretive ED50 / anti-spastic ED50 (Table 3); for Antispastic activity ED50: 120 min; for Antispastic activity, in words: in vivo
Protocol: Particularly marked is the anti-spastic activity which the present compounds exercise on the entire digestive system. Measured in the mouse, using the vegetable carbon test (rate of transit through the stomach and intestine), this activity is in some cases comparatively greater than the anti-secretive activity (Table 3).
(*)The antispastic activity is measured in mice of an average weight of […]
± 3 g by administering a suspension of charcoal in gum arabic and
checking after two hours whether the charcoal has reached the initial
portion of the colon. In non-treated subjects the charcoal reaches this
transit of the charcoal. Evaluation of the results is effected as
ED50 in mg/kg body weight of the animal, i.e., the dose at which the […]

[2] = Acute toxicity (DL50) in the mouse; assay type: in vivo; conditions: in vivo
Text: *1 DL50 in the mouse mg/kg iv.
Examples of differences between toxicity (DL50 in
the mouse) by intravenous administration and oral
administration in mg/kg. Variation in therapeutic

gastric secretion [3] = assay: Anti-secretive activity in the rat by gastric stimulus, oral; assay type: in vivo; conditions: oral (Table 1), read-out: Activity B: anti-secretive activity ED50
Protocol: *3 Anti-secretive activity in the rat by gastric stimulus, ED50 mg/k

gastric secretion [4] = assay: Anti-secretive activity in the rat with lig. pylorus, iv; assay type: in vivo; conditions: for Therapeutic coefficient iv. 2/3: DL50 iv / ED50 iv (Table 2)
gastric secretion [5] = assay: Anti-secretive activity, oral (comparison of iv and oral therapeutic coefficient); assay type: in vivo; conditions: oral (Table 2)
Text: | *6 Anti-secretive activity ED50 oral | *7 Therapeutic coefficient oral

gastric secretion [6] = assay: Comparison of antisecretive activity, rats with tied pylorus, oral aqueous suspension; assay type: in vivo; conditions: for ED50: Rattus norvegicus, po, read-out: Antisecretive activity (dose which reduces the gastric secretion by 50%)
Protocol: (*)The antisecretive activity is defined as the dose in mg/kg of body
weight of the animal, which reduces the gastric secretion by 50%. The
evaluation is effected by considering the decrease in quantity of secrete
gastric juice as compared with controls. Rats of an average weight of 200
± 20 grams are employed of which the lower part of the stomach at the
level of the pylorus is tied to collect the gastric juice during the
indicated periods. The preparations are administered orally in the form o

Solubility = assay type: physicochemical; conditions: for Solubility in water: in words
[7] = tested on: gastric lesions from Indomethacin; assay: Protective activity against gastric lesions due to Indomethacin; assay type: in vivo, rats; conditions: for Protective activity ED50: 240 min; for ED50: Rattus norvegicus, po, 4 h, read-out: Protective activity ED50
Protocol: The activity is defined as the dose in mg/kg of body weight to the animal, which prevents in 50% of the treated subjects arising of lesions due to Indomenthacin.
The protective preparations are administered orally in aqueous suspension.

[8] = dog, in vivo, po
[9] = rat, in vivo, po
[10] = Stability in conventional preservation tests and light sensitiveness; assay type: physicochemical; conditions: oral forms (capsules, tablets)
[11] = Tolerability in humans, prolonged oral administration; assay type: in vivo; conditions: several weeks, 500 to 1600 mg
[12] = mouse, vegetable carbon test (Table 3), read-out: Anti-spastic activity ED50
[13] = iv, iv (Table 1), read-out: DL50 value
[14] = Rattus norvegicus, iv, read-out: Activity A: anti-secretive activity ED50
[15] = Rattus norvegicus, iv, read-out: Anti-secretive activity ED50
[16] = Rattus norvegicus, iv, read-out: Anti-secretive activity ED50 i.v.
[17] = charcoal after two hours, orally (later Table 3)
[18] = oral, Indomethacin 16 mg/kg orally
[19] = po, charcoal after two hours, orally (later Table 3), read-out: Antispastic activity ED50
[20] = iv (Table 1), read-out: DL50 value
[21] = oral (Table 2), read-out: DL50 oral
[22] = Rattus norvegicus, iv, i.v. (Table 2), read-out: Anti-secretive activity ED50 i.v.
[23] = rat with lig. pylorus, iv (Table 1), read-out: Activity A: anti-secretive activity ED50
[24] = listed as Example 53, calcium salt

| SMILES | ED50 [1, 12] [mg/kg] | Ratio 3/2 [1] | LD50 [2, 13] [mg/kg] | ED50 (gastric secretion [3]) [mg/kg] | ED50 (gastric secretion [4]; [14]) [mg/kg] | ED50 (gastric secretion [4]; [16]) [mg/kg] | Therapeutic coefficient iv. 2/3 (gastric secretion [4]; iv) | ED50 (gastric secretion [5]) [mg/kg] | Antisecretive activity (dose which reduces the gastric secretion by 50%) (gastric secretion [6]; oral, 15 hrs, 900 min) [mg/kg] | ED50 (gastric secretion [6]; 2.5 h, oral, 2.5 hrs) [mg/kg] | ED50 (gastric secretion [6]; 5 h, oral, 5 hrs) [mg/kg] | ED50 (gastric secretion [6]; 10 h, oral, 10 hrs) [mg/kg] | ED50 (gastric secretion [6]; 15 h, oral, 15 hrs) [mg/kg] | ED50 [1, 19] [mg/kg] | ED50 [7, 18] [mg/kg] | Therapeutic coefficient oral (gastric secretion [5]) | other results |
| --- | --- | --- | --- | --- | --- | --- | --- | --- | --- | --- | --- | --- | --- | --- | --- | --- | --- |
| Cc1ccc(COC(=O)N[C@@H](Cc2c[nH]c3ccccc23)C(=O)O)cc1 [Ex. 9 (CR454), N-p-methyl-carbobenzoxy-L-tryptophane] | 120 | 1.6 | 320 | 125 | 187 | 166 | 1.9 | 268 |  |  |  |  |  |  |  |  | ED50 (gastric secretion [4]; [15]): 187 mg/kg |
| O=C(N[C@@H](Cc1c[nH]c2ccccc12)C(=O)O)c1ccc(Cl)cc1 [CR 501 magnesium salt, N-p-chloro-benzoyl-L-tryptophane magnesium salt] |  |  |  |  |  |  |  |  | 135 |  |  |  |  |  |  |  | Antisecretive activity (dose which reduces the gastric secretion by 50%) (gastric secretion [6]; oral, 2.5 hrs, 150 min): 230 mg/kg; Antisecretive activity (dose which reduces the gastric secretion by 50%) (gastric secretion [6]; oral, 5 hrs, 300 min): 180 mg/kg; Antisecretive activity (dose which reduces the gastric secretion by 50%) (gastric secretion [6]; oral, 10 hrs, 600 min): 146 mg/kg; Antispastic activity ED50 [1, 17]: 278 mg/kg; Solubility in ethanol (Solubility; listed as Example 55): soluble; Solubility in methanol (Solubility; listed as Example 55): soluble; Solubility in water (Solubility; water, listed as Example 55): Very slightly soluble; Protective activity ED50 [7, 18]: 162 mg/kg/os |
| Cc1ccc(C(=O)N[C@@H](Cc2c[nH]c3ccccc23)C(=O)O)cc1 [Ex.21 (CR510), N-p-toluyl-L-tryptophane] |  |  |  | 318 | 184 | 184 | 3.8 | 346 |  | 490 | 407 | 346 | 583 | 487 | 382 | 5.8 | LD50 [2, 20]: 700 mg/kg; LD50 [2, 21]: 2000 mg/kg |
| O=C(N[C@@H](Cc1c[nH]c2ccccc12)C(=O)O)c1ccc(Cl)cc1 [CR 501 aluminium salt, N-p-chloro-benzoyl-L-tryptophane aluminium salt] |  |  |  |  |  |  |  |  | 163 |  |  |  |  |  |  |  | Antisecretive activity (dose which reduces the gastric secretion by 50%) (gastric secretion [6]; oral, 2.5 hrs, 150 min): 195 mg/kg; Antisecretive activity (dose which reduces the gastric secretion by 50%) (gastric secretion [6]; oral, 5 hrs, 300 min): 152 mg/kg; Antisecretive activity (dose which reduces the gastric secretion by 50%) (gastric secretion [6]; oral, 10 hrs, 600 min): 150 mg/kg; Antispastic activity ED50 [1, 17]: 270 mg/kg; Solubility in ethanol (Solubility; listed as Example 56): Soluble; Solubility in methanol (Solubility; listed as Example 56): Soluble; Solubility in water (Solubility; water, listed as Example 56): very slightly soluble; Protective activity ED50 [7, 18]: 174 mg/kg/os |
| COc1ccc(COC(=O)N[C@@H](Cc2c[nH]c3ccccc23)C(=O)O)cc1 [Ex.32 (CR462), N-p-methoxy-carbobenzoxy-L-tryptophane] |  |  | 430 | 114 |  |  | 3.2 | 142 |  |  |  |  |  |  |  |  | ED50 (gastric secretion [4]; [22]): 133 mg/kg; ED50 (gastric secretion [4]; [23]): 146 mg/kg |
| O=C(N[C@@H](Cc1c[nH]c2ccccc12)C(=O)O)OCc1ccc(Cl)cc1 [Ex. 1 (CR449), N-p-chloro-carbobenzoxy-L-tryptophane] | 72 | 1.8 | 240 | 127 | 131 | 131 | 1.8 | 154 |  | 121 | 98 | 115 | 155 |  | 182 | 9.1 | LD50 ([2]; po, oral (Table 2), read-out: DL50 oral): 1410 mg/kg; ED50 (gastric secretion [4]; [15]): 131 mg/kg |
| O=C(N[C@@H](Cc1c[nH]c2ccccc12)C(=O)O)OCc1ccc(Br)cc1 [Ex. 6 (CR451), N-p-bromo-carbobenzoxy-L-tryptophane] |  |  | 125 | 77 | 92.1 | 99 | 1.9 | 133 |  | 180 | 148 |  | 405 | 275 | 335 |  | Antisecretive activity (dose which reduces the gastric secretion by 50%) (gastric secretion [6]; oral, 10 hrs, listed as CR 451 (Ex. 6), 600 min): 133 mg/kg; LD50 ([2]; iv, iv (Table 2), read-out: DL50 iv): 185 mg/kg |
| O=C(N[C@@H](Cc1c[nH]c2ccccc12)C(=O)[O-])c1ccc(Cl)cc1.[Na+] |  |  |  |  |  |  |  |  |  |  |  |  |  |  |  |  | ED50 (gastric secretion [6]; 2.5 h): 118 mg/kg; ED50 (gastric secretion [6]; 5 h): 141 mg/kg; ED50 (gastric secretion [6]; 10 h): 147 mg/kg; ED50 (gastric secretion [6]; 15 h): 410 mg/kg; ED50 ([1]; ip, read-out: Antispastic activity ED50): 82 mg/kg; ED50 ([1]; po, read-out: Antispastic activity ED50): 192 mg/kg; Solubility in acetone (Solubility): Highly soluble; Solubility in ethanol (Solubility): Highly soluble; Solubility in methanol (Solubility): Highly soluble; solubility (Solubility; water): ~50 mg/mL; ED50 [7]: 210 mg/kg |
| O=C(N[C@@H](Cc1c[nH]c2ccccc12)C(=O)O)c1ccc(Cl)cc1 [Ex.18 (CR501), N-p-chloro-benzoyl-L-tryptophane] | 82 | 1.7 |  | 110 |  |  | 1.9 | 150 | 361 | 171 | 143 | 150 |  | 248 | 234 | 7.3 | Start of antisecretive activity from administration (gastric secretion [6]; oral): < 5 h; Extent in time of antisecretive activity (gastric secretion [6]; oral, with a gradual sinking): up to 15 hours; Antispastic activity, in words ([1]; mouse): active as antispastic; Acute and chronical toxicity [8]: without exhibiting any appreciable symptom of toxicity; Solubility in water (Solubility; water, listed as CR 501): water-insoluble; Solubility in water (Solubility; water, listed as CR501): insoluble in water; Protective activity against Indomethacin lesions, in words ([7]; oral): efficient activity in preventing gastric lesions; Acute and chronical toxicity [9]: without exhibiting any appreciable symptom of toxicity; LD50 [2, 20]: 263 mg/kg; LD50 [2, 21]: 1100 mg/kg; ED50 (gastric secretion [4]; Rattus norvegicus, iv, compared with anti-spastic activity (Table 3), read-out: Anti-secretive activity ED50): 139 mg/kg; ED50 (gastric secretion [4]; [22]): 139 mg/kg; ED50 (gastric secretion [4]; [23]): 139 mg/kg |
| O=C(N[C@@H](Cc1c[nH]c2ccccc12)C(=O)O)c1ccc(Cl)cc1 [CR 501 calcium salt, N-p-chloro-benzoyl-L-tryptophane calcium salt] |  |  |  |  |  |  |  |  |  |  |  |  |  |  |  |  | Antisecretive activity (dose which reduces the gastric secretion by 50%) (gastric secretion [6]; oral, 2.5 hrs, calcium salt, 150 min): 210 mg/kg; Antisecretive activity (dose which reduces the gastric secretion by 50%) (gastric secretion [6]; oral, 5 hrs, calcium salt, 300 min): 165 mg/kg; Antisecretive activity (dose which reduces the gastric secretion by 50%) (gastric secretion [6]; oral, 10 hrs, calcium salt, 600 min): 142 mg/kg; Antisecretive activity (dose which reduces the gastric secretion by 50%) (gastric secretion [6]; oral, 15 hrs, calcium salt, 900 min): 170 mg/kg; Light sensitiveness [10]: absence of light sensitiveness; Stability on conventional preservation tests [10]: thorough stability; Antispastic activity ED50 ([1]; charcoal after two hours, orally (later Table 3), calcium salt): 210 mg/kg; Antispastic activity, in words ([1]; mouse, calcium salt): more particularly effective as antispastic; Side effects in humans [11]: does not lead to any specific side effect; Solubility in acetone (Solubility): soluble; Solubility in ethanol (Solubility; [24]): soluble; Solubility in methanol (Solubility; [24]): soluble; Solubility in water (Solubility; water, listed as Example 53, calcium salt): Very slightly soluble; Protective activity ED50 ([7]; oral, Indomethacin 16 mg/kg orally, calcium salt): 145 mg/kg/os |
